Experimental data reported in patent publication EP0746294B1, “ABSORPTION ENHANCERS FOR TOPICAL PHARMACEUTICAL FORMULATIONS” (ODONTEX, INC., priority 1993, dated 1995).
Where two headings read alike, the source gives them in different places.

How the values were obtained:
[1] = n-octanol/pH 7.0 buffer; cited from earlier work
[2] = cited from earlier work
[3] = Penetration of drugs through shed snake skin pretreated with enhancer (Franz diffusion cell, HPLC); settings: for RE (Relative enhancement compared to Azone®) / R.E. (Relative enhancement): 32°C; for R.E. (Relative enhancement): pH 7.0, relative to control (=1)
Protocol: The penetration promoting activity of DAIPD was compared to that of Azone®, taken as a typical enhancer, using shed snake skin as a model membrane. […] The permeants were selected to provide examples of basic drugs (clonidine), neutral drugs (hydrocortisone) and acidic drugs (indomethacin).
Shed snake skins were prepared as previously reported (Büyüktimkin, S., Büyüktimkin, N., and Rytting, J.H., Synthesis and enhancing effect of dodecyl 2-(N,N-dimethylamino) propionate on the transepidermal delivery of indomethacin, clonidine, and hydrocortisone, Pharm. Res., 10: 1632-1637, 1993) and as described in U.S. Patents No. 4,980,378 and No. 5,082,866, the disclosures of which are incorporated herein by reference. Shed snake skins were stored at -20°C. Before the experiment they were allowed to come to room temperature at least 12 hours before use. To reduce the variability of results, pieces cut from the same whole snake skin were used for each set of experiments
Indomethacin, clonidine, and hydrocortisone were assayed by HPLC procedures as described earlier; see Büyüktimkin et al., (1993), above.
Pieces of shed snake skin (approximately 3 x 3 cm) were pretreated with 15 µl of enhancer (divided into three 5 µl portions) 2 hr before the experiment. After mounting the skin on top of a Franz receptor cell filled with pH 7.0 (0.1 M) phosphate buffer, the donor cell was clamped on the top of the receptor cell. An aliquot of 0.5 ml of a suspension of hydrocortisone or indomethacin, prepared by suspending 50 mg or 25 mg of the drugs respectively, in 25 ml of the same buffer and stirring for 24 hr at 32°C, or a solution of clonidine (2%) in the same buffer were added to the donor cell. The solution in the receptor compartment was stirred by a magnetic stirrer. At appropriate time intervals samples were withdrawn from the receptor compartment and analyzed by HPLC.

[4] = test system: porcine esterase; test: Biodegradability of the enhancer in the presence of porcine esterase (HPLC disappearance of enhancer peak); type: in vitro ADME; settings: 32°C, pH 7.0
Protocol: A 0.1 ml aliquot of porcine esterase (235 units per mg protein) was diluted to 100 ml with pH 7.0 phosphate buffer. The enhancer solution was prepared by dissolving -12 mg (-0.045 mmoles) of the enhancer in 10 ml acetonitrile. An aliquot of 100 µl of this solution was transferred into a 10 ml volumetric flask. 9.8 ml of pH 7.0 buffer and 100 µl diluted esterase solution were added. The mixture was kept in a water bath at 32°C with constant stirring. The disappearance of the enhancer peak was monitored by HPLC. The absorbance wavelength was 204 nm. The solvent system was a mixture of acetonitrile and 0.02 M aqueous sodium hexanesulfonate (7:4) with a flow rate of 0.9 ml/min. The retention time of DAIPD was 3.95 min. The kinetic runs were done in triplicate.
The existence of esterase activity has been reported in shed snake skin (Nghiem, B.T., and Higuchi, T., Esterase activity in snake skin, Int. J. Pharm. 44: 125-130, 1988) . To confirm the biodegradability of DAIPD, its fragmentation in the presence of porcine esterase was examined. […] Esterase-catalyzed biodegradability of the enhancer is therefore confirmed. […] (Hirvonen, J., Paronen, P., and Urtti, A., Reversible enhancement of transdermal propranolol by dodecyl N,N-dimethylamino acetate, 18th International Symposium on Controlled Release of Bioactive Materials, July 8-11, 1991, Amsterdam, p 31).

Structure (SMILES)	log P [1]	RE (Relative enhancement compared to Azone®) ([3]; Clonidine)	RE (Relative enhancement compared to Azone®) ([3]; Hydrocortisone)	RE (Relative enhancement compared to Azone®) ([3]; Indomethacin)	R.E. (Relative enhancement) ([3]; clonidine)	R.E. (Relative enhancement) ([3]; hydrocortisone)	R.E. (Relative enhancement) ([3]; indomethacin)	other results
COc1ccc2c(c1)c(CC(=O)O)c(C)n2C(=O)c1ccc(Cl)cc1 [indomethacin]	1.2							
Clc1cccc(Cl)c1N=C1NCCN1 [clonidine]	0.4							
CCCCCCCCCCCCN1CCCCCC1=O [Azone®, 1-dodecylazacycloheptane-2-one]		1	1	1	13	41	46	enhancement of transdermal delivery of propranolol following pretreatment ([2]; after a week): the enhancement still existed; RE (Relative enhancement compared to Azone®) ([3]; Prazosin (45% ethanolic solution)): 1; RE (Relative enhancement compared to Azone®) ([3]; Prostaglandin E1): 1
CCCCCCCCCCCC(=O)OC(C)CN(C)C (stereo not shown) [DAIPD, 1-(N,N-dimethylamino)-2-propanol dodecanoate]		approximately two-fold	approximately two-fold	approximately equal to that of Azone®	27	88	53	half-life at 45 µM ([4]; pig, porcine esterase in phosphate buffer, degradation): 1.32 h; kobs ([4]; pseudo first order degradation): 0.0087 min⁻¹; Lag times ([3]; permeation of Clonidine, standard deviation in brackets): No lag time enhancement was found
CCCCCCCCCCCCOC(=O)CN(C)C [DDAA, dodecyl N,N-dimethylamino acetate]								enhancement of transdermal delivery of propranolol following pretreatment ([2]; after 4 days): no longer enhanced
C[C@]12CCC(=O)C=C1CC[C@@H]1[C@@H]2[C@@H](O)C[C@@]2(C)[C@H]1CC[C@]2(O)C(=O)CO [hydrocortisone]	0.8							
